Measured values: ChEMBL document CHEMBL2311317, “Organosilicon molecules with medicinal applications” (J Med Chem, 2013)
Active and inactive are the calls of the source. The rule behind the calls is not given here.

What was measured:
[1] = target: Opioid receptors; mu/kappa/delta (Homo sapiens) (UniProt P41145+P41143+P35372); assay: Inhibition of opioid receptor (unknown origin) at […]
A2780 = assay: Growth inhibition of human A2780 cells by Sulforhodamine B assay; assay type: functional
[2] = Inhibition of serine protease (unknown origin); parameters: species or system Homo sapiens
HL-60 = assay: Growth inhibition of human HL60 cells by Sulforhodamine B assay; assay type: functional
HepG2 = assay: Growth inhibition of human HepG2 cells; assay type: functional, cell-based
[3] = Inhibition of HIV protease; parameters: species or system Human immunodeficiency virus
[4] = Inhibition of thermolysin metalloprotease (unknown origin); parameters: species or system Homo sapiens

Sequence of Opioid receptors; mu/kappa/delta (Homo sapiens) (P35372 whole entry, looked up): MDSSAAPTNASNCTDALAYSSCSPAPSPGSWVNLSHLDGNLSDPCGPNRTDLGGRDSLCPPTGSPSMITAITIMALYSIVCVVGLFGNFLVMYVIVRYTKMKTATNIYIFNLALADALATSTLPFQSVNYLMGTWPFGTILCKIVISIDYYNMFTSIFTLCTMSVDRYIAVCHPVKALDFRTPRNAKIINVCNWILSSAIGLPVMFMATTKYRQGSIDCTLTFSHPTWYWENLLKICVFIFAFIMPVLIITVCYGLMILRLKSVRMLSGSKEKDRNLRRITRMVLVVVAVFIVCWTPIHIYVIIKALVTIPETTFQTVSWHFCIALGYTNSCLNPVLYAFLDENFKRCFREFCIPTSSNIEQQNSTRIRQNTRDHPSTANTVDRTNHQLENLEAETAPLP
Sequence of Opioid receptors; mu/kappa/delta (Homo sapiens) (P41143 whole entry, looked up): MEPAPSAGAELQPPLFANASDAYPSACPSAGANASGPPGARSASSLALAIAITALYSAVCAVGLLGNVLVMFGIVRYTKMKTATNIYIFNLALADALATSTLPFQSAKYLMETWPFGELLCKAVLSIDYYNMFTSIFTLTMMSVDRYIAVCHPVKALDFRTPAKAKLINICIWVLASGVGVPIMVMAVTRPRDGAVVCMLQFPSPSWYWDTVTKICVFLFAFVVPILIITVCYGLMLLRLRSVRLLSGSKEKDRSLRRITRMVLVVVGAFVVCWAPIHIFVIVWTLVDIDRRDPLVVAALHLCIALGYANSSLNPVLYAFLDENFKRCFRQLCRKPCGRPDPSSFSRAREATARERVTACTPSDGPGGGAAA
Sequence of Opioid receptors; mu/kappa/delta (Homo sapiens) (P41145 whole entry, looked up): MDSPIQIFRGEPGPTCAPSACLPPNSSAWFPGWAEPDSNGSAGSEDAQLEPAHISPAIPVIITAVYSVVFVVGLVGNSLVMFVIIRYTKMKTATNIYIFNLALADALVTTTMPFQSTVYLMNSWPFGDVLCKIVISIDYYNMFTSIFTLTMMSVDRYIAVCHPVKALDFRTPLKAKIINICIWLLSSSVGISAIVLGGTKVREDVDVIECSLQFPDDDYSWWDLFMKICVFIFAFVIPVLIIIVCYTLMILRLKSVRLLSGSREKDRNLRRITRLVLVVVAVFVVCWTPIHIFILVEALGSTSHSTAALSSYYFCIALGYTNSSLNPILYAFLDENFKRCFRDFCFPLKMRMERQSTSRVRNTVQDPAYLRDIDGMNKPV

`COc1ccc(C(CN(C)C)[Si]2(O)CCCCC2)cc1` (racemic) showed an inhibition [1] of less than 50%.
With `COC(=O)/C=C/[C@H]1OCCC[C@H]1O[Si](C)(C)C(C)(C)C` the GI50 (A2780) was 98 µM.
Compound `COC(=O)/C=C\[C@H]1OCCC[C@H]1O[Si](C)(C)C(C)(C)C` (relative stereo) has a GI50 (A2780) of 7.3 µM.
For `CC(C)(C)[Si](C)(C)O[C@@H]1CCCO[C@@H]1/C=C\CO` (relative stereo), the GI50 (A2780) was greater than 100 µM.
`C[C@H](C[Si](O)(O)[C@H](Cc1ccccc1)NC(=O)[C@@H]1CCCN1)C(N)=O` gave a Ki [2] of 0.107 µM.
With `COC(=O)/C=C/C[C@H]1OCCC[C@@H]1OC(C)=O` the GI50 (HL-60) was “inactive”.
With `COc1ccc([Si](C)(C)[C@H]2[C@H](CC(=O)N3CCC[C@H]3CO)O[C@@]3(C(=O)N(Cc4cccc(I)c4)c4ccccc43)[C@@H]2C)cc1` the EC50 (HepG2) was 17 µM.
Compound `COC(=O)/C=C/C[C@H]1OCCC[C@@H]1O[Si](C)(C)C(C)(C)C` (relative stereo) has a GI50 (HL-60) of 22 µM.
For `COC(=O)/C=C/C[C@H]1OCCC[C@@H]1OC(=O)c1ccccc1` (relative stereo), the GI50 (HL-60) was “inactive”.
For `O=C(N[C@H]1c2ccccc2C[C@H]1O)[C@H](Cc1ccccc1)C[Si](O)(O)C[C@@H](Cc1ccccc1)C(=O)N[C@H]1c2ccccc2C[C@H]1O`, the IC50 [3] was 0.014 µM.
`CC(C)C[C@H](NC(=O)[C@H](Cc1ccccc1)C[Si](O)(O)CNC(=O)CCc1ccccc1)C(=O)O` gave an IC50 [4] of 0.041 µM.
`COc1ccc(C(CN(C)C)[Si]2(O)CCCC2)cc1` (centres undefined) gave an inhibition [1] of less than 50%.
In the case of `CN(C)CC(c1ccccc1)[Si]1(O)CCCCC1` (centres undefined), the inhibition [1] is reported as less than 50%.
In the case of `COC(=O)/C=C/C[C@H]1OCCC[C@@H]1O` (relative stereo), the GI50 (HL-60) is reported as “inactive”.
